Test: passive permeability, PAMPA, ADME assay (AID 1508612)
Settings: pH 7.4, 30.0 min, 50.0 µM

Structure (SMILES)	Papp
O=[S+]([O-])(Nc1nccs1)c1ccc(NCc2cc(F)cc(Cl)c2O)cc1	18.1 ×10⁻⁶ cm/s
Cn1c2ccccc2c(=O)c2c(=O)n(-c3ccccc3)c(C3CCCCC3)nc21	440 ×10⁻⁶ cm/s
Cc1cccc(C)c1C(=O)Nc1cccc([S+](=O)([O-])N2CCCCCC2)c1	827 ×10⁻⁶ cm/s
COc1ccc(NC(=O)c2cc(-c3ccc[nH]3)n[nH]2)cc1OC	120 ×10⁻⁶ cm/s
CCOC(=O)c1ccc(NC(=O)CSc2nc3c(cc2C#N)N2CCC3CC2)cc1	422 ×10⁻⁶ cm/s
c1c[nH]c(C2CCN(c3ncc(-c4ccc5c(c4)OCCCO5)s3)CC2)n1	> 1000 ×10⁻⁶ cm/s
COc1ccc(CCN2C(=O)N(c3ccc(F)cc3)C(=O)C2CC(=O)Nc2ccc(F)c(F)c2)cc1 (stereo unspecified)	719 ×10⁻⁶ cm/s
COc1ccc(/C=C2/C(=O)Nc3ccccc32)cc1O	> 1000 ×10⁻⁶ cm/s
O=C(O)CCNc1cc(N2CCc3ccccc3CC2)nc(-c2ccccn2)n1	< 1 ×10⁻⁶ cm/s
NC(=O)C1CCN(c2nccc(-c3ccc(Br)cc3)n2)CC1	360 ×10⁻⁶ cm/s
O=C(NCC1Cn2cccc2CN1Cc1cccnc1)Nc1ccccc1 (stereo unspecified)	< 1 ×10⁻⁶ cm/s
COc1ccc(NC(=O)CCCc2nnc3n(CCC(C)C)c(=O)c4sccc4n23)cc1Cl	> 1000 ×10⁻⁶ cm/s
Cc1ccnc(C)c1C(=O)Nc1cccc([S+](=O)([O-])N(C)C)c1	98.5 ×10⁻⁶ cm/s
COc1ccc(-c2ccc3ncc4c(c3c2)n(-c2ccc(N3CCNCC3)c(C(F)(F)F)c2)c(=O)n4C)cn1	< 1 ×10⁻⁶ cm/s
O=c1c(O)c(-c2ccc(O)cc2)oc2cc(O)cc(O)c12	46.6 ×10⁻⁶ cm/s
Cc1cc(-c2nnc3n2CCCCC3)c(C)n1-c1ccc(F)cc1	314 ×10⁻⁶ cm/s
CCN(CC)S(=O)(=O)c1ccc(N2CCOCC2)c(NC(=O)c2[nH]c(C)c(C(C)=O)c2C)c1	> 1000 ×10⁻⁶ cm/s
C[C@@H]1Cc2c([nH]c3cc(Cl)c(F)cc23)[C@]2(N1)C(=O)Nc1ccc(Cl)cc12	763 ×10⁻⁶ cm/s
CN(C(=O)CSc1nc2c(c(=O)[nH]1)CCCC2)c1ccccc1	143 ×10⁻⁶ cm/s
Cc1ccnc(NC(=S)N2CC[C@@H](Nc3cccc(C(F)(F)F)c3)C2)c1	> 1000 ×10⁻⁶ cm/s

Continued, values first:

Papp	Structure (SMILES)
< 1 ×10⁻⁶ cm/s	CC(=O)Nc1ccc(OCc2cn(CC(=O)c3ccc(O)cc3)nn2)cc1
26.4 ×10⁻⁶ cm/s	Cc1ccc(CNc2ccccc2C(=O)Nc2nc(-c3ccccc3)cs2)cc1
3.2 ×10⁻⁶ cm/s	O=S(=O)(c1ccc2ccccc2c1)N1CCN(c2nc(-c3cccs3)nc3ccccc23)CC1
> 1000 ×10⁻⁶ cm/s	Cn1c(=O)c2cc(C(=O)NCCCN3CCN(c4ccccc4F)CC3)sc2c2ccccc21
> 1000 ×10⁻⁶ cm/s	CC(=O)NCc1ccc(-c2csc(Nc3cccc(C)c3)n2)o1
4.23 ×10⁻⁶ cm/s	Cc1ccc(-c2cc(C(=O)Nc3ccc(-c4nn[nH]n4)cc3)c3ccccc3n2)cc1C
9.09 ×10⁻⁶ cm/s	O=S(=O)(Nc1nc2n(n1)C(c1ccccc1)C=C(c1ccc(Cl)cc1)N2)c1ccccc1 (stereo unspecified)
400 ×10⁻⁶ cm/s	O=C(O)c1ccc(-c2c[nH]c3ncc(-c4ccccc4)cc23)cc1C1CCCC1
99 ×10⁻⁶ cm/s	CCOc1ccc(S(=O)(=O)NCc2cccnc2)cc1NC(=O)c1ccccc1F
755 ×10⁻⁶ cm/s	O=C(Nc1nc(-c2ccc(F)cc2)cs1)c1ccncc1NS(=O)(=O)c1ccc(F)cc1
253 ×10⁻⁶ cm/s	CCN(CC)S(=O)(=O)c1ccc(N2CCCC2)c(NS(=O)(=O)c2ccc(C)cc2)c1
371 ×10⁻⁶ cm/s	O=C1C2=C(Nc3ccccc3SC2c2ccco2)c2ccccc21 (stereo unspecified)
3 ×10⁻⁶ cm/s	O=C(Nc1ccc([S+](=O)([O-])Nc2nccs2)cc1)c1ccccn1
24.5 ×10⁻⁶ cm/s	O=C(NCCc1ccc(OCC(F)(F)F)c(OCC(F)(F)F)c1)c1cc2sccc2n1Cc1ccccc1
497 ×10⁻⁶ cm/s	Cc1ccc(S(=O)(=O)Nc2cnccc2C(=O)Nc2nc(C3CCC3)cs2)cc1
< 1 ×10⁻⁶ cm/s	Fc1ccc(Nc2nc(-c3ccccc3)cc(-c3ccncc3)n2)cc1F
> 1000 ×10⁻⁶ cm/s	CCN(CC)C(=O)c1sc2c(c1C)c(=O)n(Cc1ccccc1)c(=O)n2CC(=O)Nc1ccc(OC)cc1
6.43 ×10⁻⁶ cm/s	Cc1cc(N[S+](=O)([O-])c2ccc(NC(=O)Cc3ccc(F)c(F)c3)cc2)no1
917 ×10⁻⁶ cm/s	O=C(Nc1ccccc1)C1CCN(c2ncc(-c3ccc4c(c3)OCCCO4)s2)CC1
> 1000 ×10⁻⁶ cm/s	CC1=C(C(=O)Nc2nncs2)C(c2nn(C)cc2Cl)N=C(Nc2nc3ccccc3o2)N1 (stereo unspecified)
23.9 ×10⁻⁶ cm/s	Cc1ccc(S(=O)(=O)Nc2ccc(C(=O)Nc3nc(-c4ccccc4)cs3)cc2Cl)cc1

Reference: PubChem BioAssay AID1508612
